The text below walks through data of ChEMBL document CHEMBL1201862, “PubChem BioAssay data set” (2004).

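The compound was tested at five concentrations on cells cultured in 96-well plates, with a 48-hour exposure period. Abbreviation: GI50, concentration required for 50% inhibition of growth.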 Calls of active or inactive are those of the source. Rule as the data show it: active = GI50 up to about 1.1 µM and inactive = higher.

Holding throughout (assay): growth of human tumour cells (NCI), 48 h
The test system of assay [1] is NCI-H460.
In assay [2] the test system is NCI-H522.
In assay [3] the test system is SNB-19.
For assay [4], the system named is MDA-N.
The subject of assay [5] is Malme-3M.
Assay [6] deals with RXF 393.
The subject of assay [7] is SNB-75.
The subject of assay [8] is HCT-15.
The test system of assay [9] is MCF7.
The subject of assay [10] is BT-549.
In assay [11] the test system is SR.
The test system of assay [12] is HL-60.
The test system of assay [13] is 786-0.
For assay [14], the system named is SK-MEL-5.
Assay [15] deals with CCRF-CEM.
In assay [16] the test system is SF-539.
The subject of assay [17] is U-251.
Assay [18] relates to UO-31.
Assay [19] concerns RPMI-8226.

Turning to `CC(=O)Oc1ccn2nc(C)c(Br)c2c1`, the GI50 is 98.2 µM (inactive) in assay [1]; 28.8 µM (inactive) in assay [2]; > 100 µM (inactive) in [3]; 49.3 µM (inactive) in [4]; 64.1 µM (inactive) in [5]; 65.3 µM (inactive) in [6]. Moreover, the GI50 is > 44.1 µM (inactive) in assay [7]; 65.2 µM in assay [8]; 47.8 µM (inactive) in assay [9]; > 100 µM (inactive) in assay [10]; > 76.7 µM (inactive) in [11]; 25.9 µM (inactive) in assay [12]. Also, the GI50 is > 100 µM (inactive) in [13]; 42.6 µM (inactive) in [14]; 29.9 µM (inactive) in assay [15]; > 100 µM (inactive) in assay [16]; 97.7 µM (inactive) in assay [17].
Regarding `Clc1ccc(-c2cc3nc4ccccc4nc3o2)cc1`, the GI50 in [1] is > 100 µM (inactive); in assay [3], 31.6 µM (inactive); in assay [4], > 100 µM (inactive); in assay [5] it was > 100 µM (inactive); in assay [6], 32.5 µM (inactive); in assay [7], 15.3 µM (inactive). Moreover, the GI50 in assay [8] was more than 100 µM; in assay [9], 64.4 µM (inactive); in assay [10] it was 35 µM (inactive); in [11], > 100 µM (inactive); in assay [12], > 100 µM (inactive); in assay [13], 37.1 µM (inactive). For the same compound, the GI50 in assay [14] is > 100 µM (inactive); in assay [18], > 100 µM (inactive); in [15], > 100 µM (inactive); in assay [19], > 100 µM (inactive); in assay [16], 53.3 µM (inactive); in [17] it was 29.9 µM (inactive).
For the compound `COc1cc2c3c(c1O)C1(C=CC(=O)C=C1)CC3N(C)CC2` (configuration not stated) [GLAZIOVINE], the GI50 was 4.11 µM (inactive) in assay [1]; 1.93 µM (inactive) in [2]; 14.3 µM (inactive) in assay [3]; 10.7 µM (inactive) in assay [4]; 11.3 µM (inactive) in assay [5]; 6.14 µM (inactive) in assay [6]. Further, the GI50 in assay [7] was 4.57 µM (inactive); in assay [8], 5.96 µM; in assay [9], 5.14 µM (inactive); in assay [10], 5.78 µM (inactive); in [11] it was 3.3 µM (inactive); in [12] it was 2.79 µM (inactive). Besides, the GI50 in assay [13] was 3.17 µM (inactive); in [14], 14 µM (inactive); in [15], 2.31 µM (inactive); in assay [19], 14.8 µM (inactive); in assay [16] it was 10.1 µM (inactive); in assay [17] it was 4.26 µM (inactive).
Regarding `COc1ccc2c(c1)CN1C(=N2)CSC1c1ccccc1Cl` (configuration not stated), the GI50 in assay [1] is 14.3 µM (inactive); in [2] it was 12.9 µM (inactive); in assay [3], 28.6 µM (inactive); in assay [4], 17.1 µM (inactive); in assay [5], 19.1 µM (inactive); in assay [6], 14.4 µM (inactive). Also, the GI50 is 19 µM (inactive) in [7]; 11.7 µM in assay [8]; 25.9 µM (inactive) in assay [9]; 25.2 µM (inactive) in assay [10]; 7.76 µM (inactive) in [11]; 6.55 µM (inactive) in assay [12]. Further, the GI50 in assay [13] was 17.9 µM (inactive); in assay [14], 14.4 µM (inactive); in assay [18], 11.5 µM (inactive); in [19], 12.1 µM (inactive); in [16], 14.5 µM (inactive); in assay [17], 21.5 µM (inactive).
As for `C[C@]12CC[C@H](O)CC1=CC[C@@H]1[C@@H]2CC[C@]2(C)/C(=N/OCCN3CCCC3)CC[C@@H]12`, the GI50 in [1] is 12 µM (inactive); in assay [2], 13 µM (inactive); in [3], 23.4 µM (inactive); in assay [4], 17.9 µM (inactive); in [5] it was 14.1 µM (inactive); in [6], 15.1 µM (inactive). The GI50 is 19.3 µM (inactive) in assay [7]; 12.1 µM in assay [8]; 19.1 µM (inactive) in [9]; 16.3 µM (inactive) in [10]; 14.8 µM (inactive) in [11]; 7.74 µM (inactive) in [12]. Further, the GI50 in assay [13] is 18.1 µM (inactive); in assay [14], 14.6 µM (inactive); in assay [18], 16.7 µM (inactive); in assay [19], 15.2 µM (inactive); in [16], 14.6 µM (inactive); in assay [17] it was 17.5 µM (inactive).
For `CCOC(=O)CCC(C(=O)OCC)n1nc2ccc(Nc3c(C)[n+]([O-])c4ccc(Cl)cc4[n+]3[O-])cc2n1` (configuration not stated), the GI50 in [1] is 17 µM (inactive); in assay [2], 30.1 µM (inactive); in [3] it was 30.1 µM (inactive); in assay [4], 42.8 µM (inactive); in [5], 30.1 µM (inactive); in assay [6], 13 µM (inactive). The GI50 in assay [8] was 17.6 µM; in [9], 24.1 µM (inactive); in [10], 28.1 µM (inactive); in assay [11] it was 34.1 µM (inactive); in assay [12], 38.2 µM (inactive); in [13], 16.5 µM (inactive). The GI50 in [14] is 21.8 µM (inactive); in [18], 15.5 µM (inactive); in [15], 41.2 µM (inactive); in assay [19] it was 44.9 µM (inactive); in assay [16], 20.7 µM (inactive); in assay [17], 15 µM (inactive).
In the case of `N#Cc1nc(CCc2nc(C#N)c(N)o2)oc1N`, the GI50 in assay [1], in assay [2], in [3], in assay [4], in assay [5] and in assay [6] was > 10 µM (inactive) throughout. The GI50 is > 10 µM (inactive) in [7]; more than 10 µM in assay [8]; > 10 µM (inactive) in assay [9]; > 10 µM (inactive) in assay [10]; > 10 µM (inactive) in [11]; > 10 µM (inactive) in assay [12]. Also, the GI50 in assay [13], in assay [14], in [18], in assay [15], in assay [19] and in assay [16] was > 10 µM (inactive) each time.
As to `CC1CC(Nc2ccc(Br)cc2)N(C(=O)c2ccc(Br)cc2)O1` (configuration not stated), the GI50 in assay [1] was 7.48 µM (inactive); in assay [2], 8.07 µM (inactive); in [3] it was > 10 µM (inactive); in assay [4], 8.93 µM (inactive); in assay [5], 6.84 µM (inactive); in assay [6], > 10 µM (inactive). For the same compound, the GI50 is 8.28 µM (inactive) in assay [7]; 0.526 µM in assay [8]; 5.81 µM (inactive) in [9]; > 10 µM (inactive) in assay [10]; 2.19 µM (inactive) in assay [11]; 3.76 µM (inactive) in assay [12]. In addition, the GI50 in assay [13] was > 10 µM (inactive); in assay [14], > 10 µM (inactive); in [18] it was 2.34 µM (inactive); in assay [15] it was 2.51 µM (inactive); in assay [19] it was 4.78 µM (inactive); in assay [16], 3.52 µM (inactive).
For `O=C(CNS(=O)(=O)Cc1ccccc1)NNc1ccccc1`, the GI50 in assay [1] is 25.1 µM (inactive); in assay [3], > 100 µM (inactive); in [4], 15.7 µM (inactive); in [5] it was > 100 µM (inactive); in [6], > 100 µM (inactive); in assay [7] it was > 36.6 µM (inactive). Moreover, the GI50 in assay [8] is more than 100 µM; in [9], > 74.8 µM (inactive); in assay [10], > 100 µM (inactive); in assay [11] it was > 100 µM (inactive); in assay [12] it was 3.44 µM (inactive); in assay [13], > 100 µM (inactive). Further, the GI50 is 80 µM (inactive) in assay [14]; > 100 µM (inactive) in assay [18]; > 100 µM (inactive) in assay [15]; 18.4 µM (inactive) in [19]; 3.05 µM (inactive) in [16]; > 100 µM (inactive) in assay [17].
Turning to `CC1=C(C(=O)OCCO[N+](=O)[O-])C(c2ccccc2[N+](=O)[O-])C(C(=O)OC(C)C)=C(C)N1` (configuration not stated), the GI50 in assay [1] is 15.5 µM (inactive); in [2], 16 µM (inactive); in assay [3] it was 18 µM (inactive); in [4], 17.2 µM (inactive); in assay [5] it was 17.3 µM (inactive); in assay [6] it was 14.3 µM (inactive). Moreover, the GI50 in assay [8] was 16.6 µM; in [9], 19.9 µM (inactive); in assay [10], 16.5 µM (inactive); in assay [11] it was 44.9 µM (inactive); in assay [12] it was 39.3 µM (inactive); in assay [13], 16.6 µM (inactive). For the same compound, the GI50 in assay [14] is 13.9 µM (inactive); in assay [18], 13.2 µM (inactive); in [15], 33.2 µM (inactive); in assay [19] it was 84.9 µM (inactive); in assay [16], 17.7 µM (inactive); in [17], 16.2 µM (inactive).
As for `Cc1ccc(C(=O)c2[nH]c(Nc3ccc(Cl)cc3)c(C(=S)Nc3ccccc3)c2N)cc1`, the GI50 in assay [1] was 4.2 µM (inactive); in assay [2] it was 9.68 µM (inactive); in assay [3] it was 5.61 µM (inactive); in [4] it was 6.73 µM (inactive); in assay [5], 4.17 µM (inactive); in [6], 4.94 µM (inactive). Further, the GI50 in assay [7] is 2.94 µM (inactive); in assay [8] it was 10.7 µM; in assay [9], 12.5 µM (inactive); in assay [10] it was 8.04 µM (inactive); in assay [11], 2.05 µM (inactive); in assay [12] it was 44.4 µM (inactive). For the same compound, the GI50 in assay [13] was 2.74 µM (inactive); in assay [18], 9.14 µM (inactive); in assay [15] it was 8.65 µM (inactive); in assay [19], 5.05 µM (inactive); in assay [16], 5.3 µM (inactive); in [17], 3.01 µM (inactive).
